According to paper PMC9560169, “The novel visual cycle inhibitor (±)-RPE65-61 protects retinal photoreceptors from light-induced degeneration” (PLoS ONE, 2022):

Biological target: T1, RPE65 (Gallus gallus, UniProt Q9YGX2)
T1 construct: purified chicken recombinant RPE65
T1 sequence (Q9YGX2 1-533): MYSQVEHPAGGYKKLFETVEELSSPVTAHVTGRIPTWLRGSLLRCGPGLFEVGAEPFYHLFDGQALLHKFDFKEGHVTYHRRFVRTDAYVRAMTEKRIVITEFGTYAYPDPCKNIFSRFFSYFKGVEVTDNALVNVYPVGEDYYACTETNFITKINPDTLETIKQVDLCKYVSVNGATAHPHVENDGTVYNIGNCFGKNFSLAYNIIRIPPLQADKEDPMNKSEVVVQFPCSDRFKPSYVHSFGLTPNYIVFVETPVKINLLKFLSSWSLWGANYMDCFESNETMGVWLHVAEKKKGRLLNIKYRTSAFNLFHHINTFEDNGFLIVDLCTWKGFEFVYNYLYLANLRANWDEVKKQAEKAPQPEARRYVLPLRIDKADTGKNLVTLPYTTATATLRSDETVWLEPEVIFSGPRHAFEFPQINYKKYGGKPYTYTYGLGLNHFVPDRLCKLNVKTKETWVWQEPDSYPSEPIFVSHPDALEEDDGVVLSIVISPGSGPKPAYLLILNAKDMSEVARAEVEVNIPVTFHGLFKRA
Assay: liposome-based isomerohydrolase assay with all-trans-retinyl palmitate, HPLC of 11-cis-retinol, Lineweaver-Burk
Type: biochemical

- Ki: 119 ± 11 nM
Structure (SMILES): N=S(=O)(CCN)c1cccc(OCC2CCCCC2)c1 (racemic) [(±)-9, (±)-(2-aminoethyl)(3-(cyclohexylmethoxy)phenyl)(imino)-ƛ^6-sulfanone]
